{
  "source": "patent US11235057B2",
  "about": "“Methods for providing polymeric synthetic nanocarriers for generating antigen-specific tolerance immune responses” (Selecta Biosciences, Inc., priority 2011, dated 2022)",
  "system": "Treg cells (CD4+CD25highFoxP3+)",
  "experiment": "Antigen-specific tolerogenic dendritic cells (tDC) activity on Treg cell development",
  "assay_type": "cell-based, OTII mice",
  "conditions": "FIG. 3; tDC cultured with OTII T cells 4-5 days, flow cytometry",
  "description": "The assay included the use of OTII mice which have a transgenic T cell receptor specific for an immune-dominant ovalbumin peptide (323-339). In order to create antigen-specific tDCs, CD11c^+ splenocytes were isolated, and the ovalbumin peptide (323-339) added in vitro at 1 μg/ml or no antigen. Soluble or nanocarrier-encapsulated rapamycin was then added to the DCs for 2 hours which were then washed extensively to remove free rapamycin from the culture. Purified responder CD4^+CD25^− cells were isolated from OTII mice and added to tDC at a 10:1 T to DC ratio. The mixture of tDC and OTII T cells were then cultured for 4-5 days, and the frequency of Treg cells (CD4^+CD25highFoxP3^+) were analyzed by flow cytometry as shown in FIG. 1. Regions were selected based on isotype controls.\nFree rapamycin or synthetic nanocarriers containing rapamycin were combined with free soluble Ovalbumin (323-339) to evaluate induction of tDC (FIG. 2). […] Briefly, antigen specific tDC were obtained by isolating dendritic cells (CD11c^+ splenocytes) and culturing them in combination with the Ovalbumin (323-339) peptide plus soluble or nanocarrier encapsulated rapamycin (Synthetic Nanocarrier #s 13, 14, 15 and 16) for 2 hours followed by extensive washing. […] The mixture of tDC and OTII T cells were then cultured for 4-5 days, and the frequency of Treg cells (CD4^+CD25highFoxP3^+) were analyzed by flow cytometry.",
  "data": [
    {"smiles": "CO[C@H]1C[C@@H]2CC[C@@H](C)[C@@](O)(O2)C(=O)C(=O)N2CCCC[C@H]2C(=O)O[C@H]([C@H](C)C[C@@H]2CC[C@@H](O)[C@H](OC)C2)CC(=O)[C@H](C)/C=C(\\C)[C@@H](O)[C@@H](OC)C(=O)[C@H](C)C[C@H](C)/C=C/C=C/C=C/1C", "note": "[rapamycin]", "values": [
      {"measurement": "induction of FoxP3 expressing cells", "result": 2.7, "unit": "%"}
    ]}
  ]
}
